Source: publication PMC9721423, “Novel benzo chromene derivatives: design, synthesis, molecular docking, cell cycle arrest, and apoptosis induction in human acute myeloid leukemia HL-60 cells” (Journal of Enzyme Inhibition and Medicinal Chemistry, 2022)
Like-named read-outs stand apart in the source and are kept apart here.

Tests used:
Experiment in all cases: cells
Set-up in all cases: species or system NCI-60 human tumour cell lines; NCI-60 five-dose growth inhibition screen, sulforhodamine B protein stain
SF-539 = conditions: Homo sapiens, SF-539, 48 h
Procedure: (§1) All the newly synthesised 28 compounds were selected for single-dose testing. NCI60 single-dose testing is performed in all 60 cell lines according to the reported assay (National Cancer Institute, https://dtp.cancer.gov/) (National Cancer Institute https://dtp.cancer.gov/discovery_development/nci-60/), compounds were dissolved in DMSO: glycerol […] and are stored in a −70 °C freezer. The prepared compounds were added at single concentration of 1 0^−5 M and the culture was incubated for 48 h. End point determinations were made with a protein binding dye, sulforhodamine B (SRB). The human tumour cell lines were derived from nine different cancer types: leukaemia, melanoma, lung, colon, central nervous system (CNS), ovarian, renal, prostate, and breast cancers. Dose–response curves for these compounds were created by plotting the percentage growth (PGs or % growth) against log10 of the corresponding concentration for every cell line. Three response parameters, GI50 (Median Growth Inhibitory Concentration), TGI (Total Growth Inhibitory Concentration), and LC50 (Median Lethal Concentration) were calculated[54] (National Cancer Institute, https://dtp.cancer.gov/discovery_development/nci-60/) (National Cancer Institute, https://dtp.cancer.gov/)[55] for compounds 5a and 6a. […] Furthermore, the average sensitivity of all cell lines towards the compound is termed as the full panel mean graph midpoints (MG-MID). The ratio obtained by dividing the full panel mean graph midpoints (MG-MID) concentration by the individual subpanel MG-MID concentrations (obtained as the average sensitivity of all cell lines of a particular subpanel towards the test compound) is considered a criterion for the compound selectivity towards the corresponding cell line. Ratios greater than 6 indicate high selectivity while ratios between 3 and 6 refer to moderate selectivity whereas compounds not meeting either of these criteria were rated non-selective[56].

786-0 = conditions: Homo sapiens, 786-0, 48 h
Procedure: as §1

NCI-H23 = conditions: Homo sapiens, NCI-H23, 48 h
Procedure: as §1

SNB-75 = conditions: Homo sapiens, SNB-75, 48 h
Procedure: as §1

HCC-2998 = conditions: Homo sapiens, HCC 2998, 48 h
Procedure: as §1

NCI-H522 = conditions: Homo sapiens, NCI-H522, 48 h
Procedure: as §1

SR = conditions: Homo sapiens, SR, 48 h
Procedure: as §1

NCI-H322M = conditions: Homo sapiens, NCI-H322M, 48 h
Procedure: as §1

HS 578T = conditions: Homo sapiens, Hs-578T, 48 h
Procedure: as §1

HOP-62 = conditions: Homo sapiens, HOP-62, 48 h
Procedure: as §1

HCT-116 = conditions: Homo sapiens, HCT-116, 48 h
Procedure: as §1

RXF 393 = conditions: Homo sapiens, RXF 393, 48 h
Procedure: as §1

SK-MEL-28 = conditions: Homo sapiens, SK-MEL-28, 48 h
Procedure: as §1

HOP-92 = conditions: Homo sapiens, HOP-92, 48 h
Procedure: as §1

OVCAR-5 = conditions: Homo sapiens, OVCAR-5, 48 h
Procedure: as §1

SK-OV-3 = conditions: Homo sapiens, SK-OV-3, 48 h
Procedure: as §1

CAKI-1 = conditions: Homo sapiens, CAKI-1, 48 h
Procedure: as §1

Molecule N=C(NO)C1=C(N)Oc2c(ccc3ccccc23)C1c1ccccc1 (stereo not shown) [5a, 2-Amino-4-phenyl-N-hydroxy-4H-benzo[h]chromene-3-carboxamidine] has a GI50 (SF-539; read-out: GI50 5a) of 210 nM, a GI50 (786-0; read-out: GI50 5a) of 560 nM and a GI50 (NCI-H23; read-out: GI50 5a) of 470 nM. The GI50 (SNB-75; read-out: GI50 5a) was 80 nM, the GI50 (HCC-2998; read-out: GI50 5a) was 370 nM and the GI50 (NCI-H522; read-out: GI50 5a) was 60 nM. The GI50 (SR; read-out: GI50 5a) was 100 nM, the GI50 (NCI-H322M; read-out: GI50 5a) was 660 nM and the GI50 (HS 578T; read-out: GI50 5a) was 230 nM. The GI50 (HOP-62; read-out: GI50 5a) was 380 nM, the GI50 (HCT-116; read-out: GI50 5a) was 410 nM and the GI50 (RXF 393; read-out: GI50 5a) was 200 nM. For the same molecule, the GI50 (SK-MEL-28; read-out: GI50 5a) was 11800 nM, the GI50 (HOP-92; read-out: GI50 5a) was 820 nM and the GI50 (OVCAR-5) was 610 nM. For the same molecule, the GI50 (SK-OV-3; read-out: GI50 5a) was 620 nM and the GI50 (CAKI-1; read-out: GI50 5a) was 100 nM.
CC(=O)NC1=C(C#N)C(c2ccccc2)c2ccc3ccccc3c2O1 (stereo not shown) [6a, N-(3-Cyano-4-phenyl-4H-benzo[h]chromen-2-yl)acetamide] showed a GI50 (SF-539; read-out: GI50 6a) of 350 nM, a GI50 (786-0; read-out: GI50 6a) of 490 nM and a GI50 (NCI-H23; read-out: GI50 6a) of 730 nM. It also gave a GI50 (SNB-75; read-out: GI50 6a) of 240 nM, a GI50 (HCC-2998; read-out: GI50 6a) of 1430 nM and a GI50 (NCI-H522; read-out: GI50 6a) of 220 nM. For the same molecule, the GI50 (SR; read-out: GI50 6a) was 470 nM, the GI50 (NCI-H322M; read-out: GI50 6a) was 820 nM and the GI50 (HS 578T; read-out: GI50 6a) was 360 nM. It also gave a GI50 (HOP-62; read-out: GI50 6a) of 690 nM, a GI50 (HCT-116; read-out: GI50 6a) of 430 nM and a GI50 (RXF 393; read-out: GI50 6a) of 270 nM. The GI50 (SK-MEL-28; read-out: GI50 6a) was 860 nM, the GI50 (HOP-92; read-out: GI50 6a) was 610 nM and the GI50 (OVCAR-5; read-out: GI50 6a) was 2100 nM. For the same molecule, the GI50 (SK-OV-3; read-out: GI50 6a) was 490 nM and the GI50 (CAKI-1; read-out: GI50 6a) was 340 nM.
